Data on 27 compounds can be found in PubChem BioAssay (NCI).

As usually defined, the TGI is the concentration at which net growth stops. Read a low TGI as more potent growth arrest. What is called GI50 is the concentration giving 50% growth inhibition.

Each structure is given as a SMILES string.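 Where inhibition never reached the appropriate level, the endpoint shown equals the highest concentration tested. Otherwise, values were interpolated linearly from a five-concentration, 48-hour dose response in 96-well plates. GI50 marks 50% less growth. TGI: total growth inhibition.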

One experiment has as its system CAKI-1 renal. Kind of experiment: DTP human tumour cell line panel, 48 h.
For the compound `Cn1cc(NC(=O)c2cc(NC(=O)CCCCCCCCCCC(=O)Nc3cc(C(=O)Nc4cc(C(=O)NCCC(=N)N)n(C)c4)n(C)c3)cn2C)cc1C(=O)NCCC(=N)N`, the TGI is more than 100 µM.
Take `C1COCCN1.C1COCCN1.N.N.[Cl-].[Pt+2]`: the GI50 is 54.1 µM and the TGI is more than 100 µM.
In the same order, the values of `CNC(=O)c1ccccc1CC1(O)c2ccccc2Oc2ccccc21` are 21.7 µM and more than 100 µM.
For `Cc1ccccc1C(C#N)C(=O)C(=O)Nc1nc([N+](=O)[O-])cs1` (stereo not drawn), the TGI is more than 100 µM.
Still for that read-out and setting: for `C#CCNC(=O)NC(CCCNC(=O)OCc1ccccc1)C(=O)OCc1ccccc1` (stereo not drawn) the value was 87.5 µM; for `O=c1[nH]c2ccccc2cc1C(Cl)=C(Cl)Cl`, more than 100 µM.
In the case of `O=[N+]([O-])[C@@H]1C2C=CC(C2)[C@H]1Cl` (stereo partly drawn), the TGI was more than 100 µM.
`COC(=O)C(C#N)=C1c2ccccc2Oc2ccccc21`: the TGI is more than 100 µM.
Take `O=C(c1cccs1)c1c(C(F)(F)F)n([O-])c2ccccc2[n+]1=O`: the GI50 was 1 µM and the concentration for total growth inhibition (TGI) worked out at 2.36 µM.
Compound `N#CC1(c2nc3ccccc3o2)C(=O)C(=O)N(C2C3CC4CC(C3)CC2C4)C(=O)C1=O` (stereo not drawn) yielded a TGI of more than 100 µM.
In turn, `O=C1NC(c2ccc(O)cc2)C2CCC1C2` (stereo not drawn) returned a TGI of more than 100 µM.
The same measure, in the same setting: for `CCOC(=O)C1(CC)CCCCC(=O)N1` (stereo not drawn) the value was more than 100 µM.
Still for that read-out and setting: the result for `C=CC1=CSNN1` reads more than 100 µM; that for `CSc1nc(SC)c2c(CN=[N+]=[N-])c(Br)n(Cc3ccccc3)c2n1`, more than 100 µM; that for `O=C(C#Cc1c[nH]c(=O)[nH]c1=O)c1ccccc1Cl`, 31.3 µM.
Same read-out and setting: the result for `CC(=O)OC1=C2CC3(C)OC(=O)CC(C)(C)C3=CC=C2C=C(C(C)C)C1=O` (stereo not drawn) reads 3.18 µM; that for `CCCCCCCCCCCCCCCC(=O)NCC(COP(=O)([O-])OCC[N+](C)(C)C)OCC` (stereo not drawn), 35.2 µM.
As for `COC(=O)C1OC(O[C@H]2CCC3(C)C(CCC4(C)C3CC=C3C5CC(C)(C)CCC5(C(=O)O)CC[C@]34C)C2(C)C)C(O)C(OC2OC(CO)C(O)C(O)C2O)C1O` (stereo partly drawn), the GI50 is 12.2 µM and the TGI was more than 33.3 µM.
For `O=C1NC2(CCCC2)C(=O)C12CCCC2`, the TGI is more than 100 µM.
Still for that read-out and setting: the result for `O=C1CCCN(c2ccccc2)N1` reads more than 100 µM; that for `CN(C)/C(=N/C(=S)Nc1ccccc1)SCc1ccccc1`, more than 100 µM; that for `CCOC(=O)C1=C(C)Nc2ccccc2S1`, more than 100 µM.
`CCOC(=O)CC1=Nc2ccccc2SC1` returned a TGI of more than 100 µM.

Another experiment deals with UACC-62 melanoma. The experiment can be described thus: DTP human tumour cell line panel, 48 h.
As for `C[C@@H]1CC[C@H]2C(COCC3=C(C(F)(F)F)O[C@@H]4O[C@@]5(C)CC[C@H]6[C@H](C)CC[C@@H]3[C@@]46OO5)=C(C(F)(F)F)O[C@@H]3O[C@@]4(C)CC[C@@H]1[C@]32OO4`, the GI50 is 0.0609 µM and the TGI is more than 100 µM.
`CCOc1ccc(NC(=O)CC2Sc3ccccc3NC2=O)cc1` (stereo not drawn) yielded a TGI of more than 100 µM.
Same read-out and setting: the result for `Cn1cc(NC(=O)c2cc(NC(=O)CCCCCCCCCCC(=O)Nc3cc(C(=O)Nc4cc(C(=O)NCCC(=N)N)n(C)c4)n(C)c3)cn2C)cc1C(=O)NCCC(=N)N` reads more than 100 µM.
Regarding `C1COCCN1.C1COCCN1.N.N.[Cl-].[Pt+2]`, the GI50 is more than 100 µM and the concentration for total growth inhibition (TGI) was more than 100 µM.
As to `CNC(=O)c1ccccc1CC1(O)c2ccccc2Oc2ccccc21`, the GI50 is 10.4 µM and the TGI worked out at 52.6 µM.
Regarding `Cc1ccccc1C(C#N)C(=O)C(=O)Nc1nc([N+](=O)[O-])cs1` (stereo not drawn), the TGI is more than 100 µM.
Still for that read-out and setting: the result for `COC(=O)C(c1[nH]nc2ccccc12)C(C(=O)OC)c1[nH]nc2ccccc12` (stereo not drawn) reads more than 100 µM; that for `C#CCNC(=O)NC(CCCNC(=O)OCc1ccccc1)C(=O)OCc1ccccc1` (stereo not drawn), more than 100 µM; that for `O=c1[nH]c2ccccc2cc1C(Cl)=C(Cl)Cl`, more than 100 µM.
For `O=[N+]([O-])[C@@H]1C2C=CC(C2)[C@H]1Cl` (stereo partly drawn), the TGI was more than 100 µM.
Same read-out and setting: the result for `COC(=O)C(C#N)=C1c2ccccc2Oc2ccccc21` reads more than 100 µM.
On to `O=C(c1cccs1)c1c(C(F)(F)F)n([O-])c2ccccc2[n+]1=O`, for which the GI50 is 0.743 µM and the TGI was 1.6 µM.
In turn, `N#CC1(c2nc3ccccc3o2)C(=O)C(=O)N(C2C3CC4CC(C3)CC2C4)C(=O)C1=O` (stereo not drawn) displayed a TGI of more than 100 µM.
Turning to `O=C1NC(c2ccc(O)cc2)C2CCC1C2` (stereo not drawn), the TGI was more than 100 µM.
Same read-out and setting: for `CCOC(=O)C1(CC)CCCCC(=O)N1` (stereo not drawn) the value was more than 100 µM; for `C=CC1=CSNN1`, more than 100 µM; for `CSc1nc(SC)c2c(CN=[N+]=[N-])c(Br)n(Cc3ccccc3)c2n1`, more than 100 µM.
Same read-out and setting: the result for `O=C(C#Cc1c[nH]c(=O)[nH]c1=O)c1ccccc1Cl` reads 38.6 µM; that for `CC(=O)OC1=C2CC3(C)OC(=O)CC(C)(C)C3=CC=C2C=C(C(C)C)C1=O` (stereo not drawn), 0.725 µM; that for `CCCCCCCCCCCCCCCC(=O)NCC(COP(=O)([O-])OCC[N+](C)(C)C)OCC` (stereo not drawn), 22.3 µM.
With `COC(=O)C1OC(O[C@H]2CCC3(C)C(CCC4(C)C3CC=C3C5CC(C)(C)CCC5(C(=O)O)CC[C@]34C)C2(C)C)C(O)C(OC2OC(CO)C(O)C(O)C2O)C1O` (stereo partly drawn), the GI50 is 6.23 µM and the TGI was 11.7 µM.
`O=C1NC2(CCCC2)C(=O)C12CCCC2` came in with a TGI of more than 100 µM.
Still for that read-out and setting: the result for `O=C1CCCN(c2ccccc2)N1` reads more than 100 µM; that for `CN(C)/C(=N/C(=S)Nc1ccccc1)SCc1ccccc1`, more than 100 µM; that for `CCOC(=O)C1=C(C)Nc2ccccc2S1`, more than 100 µM.
The same measure, in the same setting: for `CCOC(=O)CC1=Nc2ccccc2SC1` the value was more than 100 µM.
Same read-out and setting: the result for `C=CCSC[C@H](NC(=O)COc1ccccc1)C(=O)NC(C(=O)OCc1ccc([N+](=O)[O-])cc1)=C(C)C` reads more than 100 µM.

The test system of another experiment is DU-145 prostate. Kind of experiment: DTP human tumour cell line panel, 48 h.
In the case of `CNC(=O)c1ccccc1CC1(O)c2ccccc2Oc2ccccc21`, the GI50 was 22 µM and the TGI was found to be 56.5 µM.
Taken in the same sequence, the figures for `O=C(c1cccs1)c1c(C(F)(F)F)n([O-])c2ccccc2[n+]1=O` were 0.695 µM and 1.34 µM.
